# Measured values published in US20060223891A1, “Use of alverine, alone or in combination with a tricyclic antidepressant or an antidepressant which is a specific inhibitor of serotonin reuptake for treatment of depression” (CEREP, priority 2003, published 2006).
# Where “and” joins values, the source holds several entries; their conditions need not be identical. Equal entries are not always repeated. Entries after “also recorded” stand apart in the source; their conditions may differ. Structures can show the parent of a compound that is named as a salt.
# Key:
# Type in all cases: in vivo
# Swiss mice CD1 [1] = test: forced swimming test, Alverine administered intraperitoneally (Example 1); set-up: key to Dunnett test: * indicates a significant difference for p < 0.05 (Dunnett test); ns indicates an insignificant result; settings: for immobility time, individual mice / immobility time, Average: 30 minutes prior to the test; for immobility time, Average: N = 10; for % of variation of immobility time: vs average of excipient group; for Dunnett test: vs excipient group
# Protocol: Antidepressive Activity Test on Alverine administered intraperitoneally on a batch of mice. To establish the advantages according to the present invention a study was carried out on a batch of 50 mice. They were divided into 5 groups of 10 mice each. These are Swiss mice CD1 (CD-1®(ICR) IGS (Charles River France) weighing between 25 and 35 g. The substance to be tested is Alverine citrate (Sigma, in the form of dry powder, with a salt/base ratio of 1.68) comparatively to imipramine chlorhydrate (Sigma, in the form of dry powder, with a salt/base ratio of 1.13). The doses are expressed in terms of free active substances. The substances are prepared extemporaneously in the excipient. The treatments are administered 30 minutes prior to the test in a coded and random order intraperitoneally with a volume of 10 ml/kg. Thirty minutes following administration the five groups of mice are subjected to the forced swimming test, in a vertical Plexiglas cylinder (height 24 cm, diameter 9 cm) containing water (height 6 cm, temperature 18-22° C.). The total duration of immobility is measured over the last four minutes of the test, six minutes in total. A mouse is deemed immobile when it ceases struggling and floats in the water without movements superfluous to those allowing it to keep its head above water. A drop in immobility time is the reflection of an antidepressant effect. The results are expressed in total duration of immobility in seconds and as a percentage of variation of the total duration of immobility calculated from the average value of the sample group. The statistical significance between the treated groups and the sample group is determined by a Dunnett test using the residual variation according to analysis of the variance (P<0.05). The data are analysed using <<SigmaStat>> software. The results obtained are presented in the form of the following table, and in the form of a histogram, in FIG. 1.
# Swiss mice CD1 [2] = test: forced swimming test, Alverine associated with imipramine, intraperitoneally (Example 3, test no. 1); set-up: key to Dunnett test: * indicates a significant difference for p < 0.05 (Dunnett test); ns indicates an insignificant result; settings: for immobility time, individual mice / immobility time, Average / % of variation of immobility time / Dunnett test: intraperitoneally; for immobility time, individual mice / immobility time, Average: 30 minutes prior to the test; for immobility time, Average: n = 10; for % of variation of immobility time: vs average of excipient group; for Dunnett test: vs excipient group; for duration of immobilisation as compared to the sample group (in words): tested alone at 3 mg/kg
# Protocol: (§1) The treatments are co-administered 30 minutes prior to the test in a coded and random order intraperitoneally with a volume of 10 ml/kg (5 ml/kg for each administration). Thirty minutes following administration the six groups of mice are subjected to the forced swimming test, in a vertical Plexiglas cylinder (height 24 cm, diameter 9 cm) containing water (height 6 cm, temperature 18-22° C.). The total duration of immobility is measured over the last four minutes of the test, six minutes in total. A mouse is deemed immobile when it ceases struggling and floats in the water without movements superfluous to those allowing it to keep its. head above water. A drop in immobility time is the reflection of an antidepressant effect. The results are expressed in total duration of immobility in seconds and as a percentage of variation of the total duration of immobility calculated from the average value of the sample group. The statistical significance between two treated groups is determined by using a Student test (P<0.05). The data are analysed using <<SigmaStat>> software.
# Swiss mice CD1 [3] = test: forced swimming test, Alverine associated with fluoxetine, intraperitoneally (Example 3, test no. 2); settings: for immobility time, individual mice / immobility time, Average: 30 minutes prior to the test; for immobility time, Average: n = 10; for % of variation of immobility time: vs average of excipient group; for duration of immobilisation as compared to the sample group (in words): tested alone at 3 mg/kg
# Protocol: as §1, with “Thirty minutes following administration the six groups of mice are subjected to the forced swimming test, in a vertical Plexiglas cylinder (height 24 cm, diameter 9 cm) containing water (height 6 cm, temperature 18-22° C.).” left out
# Swiss mice CD1 [4] = test: forced swimming test, Alverine administered orally (Example 2); set-up: key to Dunnett test: * indicates a significant difference for p < 0.05 (Dunnett test); ns indicates an insignificant result; settings: for immobility time, individual mice / immobility time, Average: 60 minutes prior to the test; for immobility time, Average: N = 10; for % of variation of immobility time: vs average of excipient group; for Dunnett test: vs excipient group
# Protocol: Antidepressive Activity Test on Alverine administered orally on a batch of mice.
# To establish the advantages according to the present invention a study, was carried out on a batch of 50 mice. They were divided into 5 groups of 10 mice each. These are Swiss mice CD1 (CD-1® (ICR) IGS (Charles River France) weighing between 25 and 35 g.
# The substance to be tested is Alverine citrate (Sigma, in the form of dry powder, with a salt/base ratio of 1.68) comparatively to imipramine chlorhydrate (Sigma, in the form of dry powder, with a salt/base ratio of 1.13).
# The fifth group is treated with imipramine (tricyclic antidepressant) at a dose of 30 mg/kg The doses are expressed in terms of free active substances. The substances are prepared extemporaneously in the excipient. […]
# One hour following administration the five groups of mice are subjected to the forced swimming test, in a vertical Plexiglas cylinder (height 24 cm, diameter 9 cm) containing water (height 6 cm, temperature 18-22° C.). The total duration of immobility is measured over the last four minutes of the test, six minutes in total. A mouse is deemed immobile when it ceases struggling and floats in the water without movements superfluous to those allowing it to keep its head above water. A drop in immobility time is the reflection of an antidepressant effect.
# The results are expressed in total duration of immobility in seconds and as a percentage of variation of the total duration of immobility calculated from the average value of the sample group.
# The statistical significance between the treated groups and the sample group is determined by a Dunnett test using the residual variation according to analysis of the. variance (P<0.05). The data are analysed using <<SigmaStat>> software.
# [5] = 3 mg/kg alone, intraperitoneally
# [6] = 10 mg/kg alone, intraperitoneally
structure (smiles),measurement,setting,value
"CCN(CCCc1ccccc1)CCCc1ccccc1 [Alverine citrate, N-ethyl-3,3′-diphenyldipropylamine]","immobility time, individual mice",Swiss mice CD1 [1]; 3 mg/kg intraperitoneally,128 s and 82 s and 151 s and 132 s and 127 s and 88 s and 85 s and 99 s and 93 s and 118 s
same,"immobility time, Average",Swiss mice CD1 [1]; 3 mg/kg intraperitoneally,110.3 s
same,% of variation of immobility time,Swiss mice CD1 [1]; 3 mg/kg intraperitoneally,−15%
same,Dunnett test,Swiss mice CD1 [1]; 3 mg/kg intraperitoneally,ns
same,"immobility time, individual mice",Swiss mice CD1 [1]; 10 mg/kg intraperitoneally,29 s and 86 s and 28 s and 30 s and 90 s and 99 s and 65 s and 129 s and 57 s and 3 s
same,"immobility time, Average",Swiss mice CD1 [1]; 10 mg/kg intraperitoneally,61.6 s
same,% of variation of immobility time,Swiss mice CD1 [1]; 10 mg/kg intraperitoneally,−53%
same,Dunnett test,Swiss mice CD1 [1]; 10 mg/kg intraperitoneally,* (* indicates a significant difference for p < 0.05 (Dunnett test))
same,"immobility time, individual mice",Swiss mice CD1 [1]; 30 mg/kg intraperitoneally,97 sec and 3 sec and 66 sec and 36 sec and 0 sec and 15 sec and 7 sec (2×) and 16 sec and 12 sec
same,"immobility time, Average",Swiss mice CD1 [1]; 30 mg/kg intraperitoneally,25.9 s
same,% of variation of immobility time,Swiss mice CD1 [1]; 30 mg/kg intraperitoneally,−80%
same,Dunnett test,Swiss mice CD1 [1]; 30 mg/kg intraperitoneally,* (* indicates a significant difference for p < 0.05 (Dunnett test))
same,antidepressant effect (in words),"Swiss mice CD1 [1]; injected intraperitoneally, 3 to 30 mg/kg, mice",antidepressant effect proportional to the dose; also recorded: significant antidepressant effect
same,"immobility time, individual mice",Swiss mice CD1 [2]; 3 mg/kg alone,108 s and 134 s and 113 s and 65 s and 85 s and 73 s and 79 s and 125 s and 95 s and 140 s
same,"immobility time, Average",Swiss mice CD1 [2]; 3 mg/kg alone,101.7 s
same,% of variation of immobility time,Swiss mice CD1 [2]; 3 mg/kg alone,−30%
same,Dunnett test,Swiss mice CD1 [2]; 3 mg/kg alone,ns
same,"immobility time, individual mice",Swiss mice CD1 [2]; 10 mg/kg alone,28 s and 10 s and 1 s and 74 s and 22 s and 70 s and 69 s and 67 s and 42 s and 57 s
same,"immobility time, Average",Swiss mice CD1 [2]; 10 mg/kg alone,44.0 s
same,% of variation of immobility time,Swiss mice CD1 [2]; 10 mg/kg alone,−70%
same,Dunnett test,Swiss mice CD1 [2]; 10 mg/kg alone,* (* indicates a significant difference for p < 0.05 (Dunnett test))
same,duration of immobilisation as compared to the sample group (in words),Swiss mice CD1 [2],"decrease, statistically insignificant"
same,"immobility time, individual mice",Swiss mice CD1 [3]; [5],119 sec and 138 sec and 117 sec (2×) and 110 sec and 73 sec and 47 sec and 124 sec and 72 sec and 32 sec
same,"immobility time, Average",Swiss mice CD1 [3]; [5],94.9 s
same,% of variation of immobility time,Swiss mice CD1 [3]; [5],−37%
same,"immobility time, individual mice",Swiss mice CD1 [3]; [6],63 sec and 75 sec (2×) and 77 sec and 46 sec and 6 sec and 113 sec and 89 sec and 104 sec and 125 sec
same,"immobility time, Average",Swiss mice CD1 [3]; [6],77.3 s
same,% of variation of immobility time,Swiss mice CD1 [3]; [6],−49%
same,Dunnett test,"Swiss mice CD1 [3]; 10 mg/kg alone, intraperitoneally, vs excipient group",* (* indicates a significant difference for p < 0.05 (Dunnett test))
same,duration of immobilisation as compared to the sample group (in words),Swiss mice CD1 [3],"decrease, statistically insignificant"
same,"immobility time, individual mice",Swiss mice CD1 [4]; 10 mg/kg orally,95 s and 104 s and 111 s and 126 s and 108 s and 78 s and 115 s and 106 s and 113 s and 86 s
same,"immobility time, Average",Swiss mice CD1 [4]; 10 mg/kg orally,104.2 s
same,% of variation of immobility time,Swiss mice CD1 [4]; 10 mg/kg orally,−30%
same,Dunnett test,Swiss mice CD1 [4]; 10 mg/kg orally,ns
same,"immobility time, individual mice",Swiss mice CD1 [4]; 30 mg/kg orally,80 sec and 64 sec and 70 sec and 105 sec (3×) and 41 sec and 63 sec and 113 sec and 104 sec
same,"immobility time, Average",Swiss mice CD1 [4]; 30 mg/kg orally,85.0 s
same,% of variation of immobility time,Swiss mice CD1 [4]; 30 mg/kg orally,−43%
same,Dunnett test,Swiss mice CD1 [4]; 30 mg/kg orally,* (* indicates a significant difference for p < 0.05 (Dunnett test))
same,"immobility time, individual mice",Swiss mice CD1 [4]; 100 mg/kg orally,129 s and 67 s and 6 s and 105 s and 75 s and 81 s and 5 s and 37 s and 32 s and 52 s
same,"immobility time, Average",Swiss mice CD1 [4]; 100 mg/kg orally,58.9 s
same,% of variation of immobility time,Swiss mice CD1 [4]; 100 mg/kg orally,−60%
same,Dunnett test,Swiss mice CD1 [4]; 100 mg/kg orally,* (* indicates a significant difference for p < 0.05 (Dunnett test))
same,secondary effect observed,"Swiss mice CD1 [4]; mice treated orally, 10 to 100 mg/kg",no secondary effect was observed
same,antidepressant effect (in words),"Swiss mice CD1 [4]; orally, 10 to 100 mg/kg, mice",significant antidepressant effect; also recorded: antidepressant effect proportional to the dose
"CNCCC(Oc1ccc(C(F)(F)F)cc1)c1ccccc1 (stereo not shown) [Fluoxetine, fluoxetine]",duration of immobilisation as compared to the sample group (in words),Swiss mice CD1 [3],"decrease, statistically insignificant"
"CN(C)CCCN1c2ccccc2CCc2ccccc21 [Imipramine, imipramine]",duration of immobilisation as compared to the sample group (in words),Swiss mice CD1 [2],"decrease, statistically insignificant"
